From patent US20040072892A1, “Cyanopyrrolidine derivatives” (priority 2000, published 2004)
Counter-ions that a name gives are not always drawn.

What was measured:
[1] = Concentration of test drug in blood by oral administration in rats (LC/MS/MS); assay type: in vivo; conditions: Wistar rats, oral 1 mg/kg; for concentration at 5 min / concentration at 10 min / concentration at 15 min / concentration at 30 min / concentration at 1 h / concentration at 2 h: male, rat, plasma, mean of 2 samples; for concentration at 5 min: 5 min. after administration; for concentration at 10 min: 10 min. after administration; for concentration at 15 min: 15 min. after administration; for concentration at 30 min: 30 min. after administration; for concentration at 1 h: 1 hour after administration; for concentration at 2 h: 2 hours after administration
Method: Experiment 2 [Concentration of Test Drug in Blood by Oral Administration in Rats]
Wistar rats, male (8 weeks old) were used after fasting from the day before the test.
At 5, 10, 15, 30 minutes, 1 and 2 hours after the administration, each 0.2 ml of blood was collected from the jugular vein and, after centrifugation, the resulting plasma was used as sample.
That is, 50 μl of the plasma was added to 200 μl of acetonitrile, stirred and, after centrifugation, the supernatant was injected to a liquid chromatography wherein CAPCEL PAK C18, UG120 5 μm (150 mm long, 2 mm diameter) was used as a column, a mixture of 10 mM aqueous ammonium acetate solution and 90% aqueous acetonitrile solution (1:9) was used as an eluent, Sciex API3000 LC/MS/MS System (Perkin Elmer Sciex) was used as a MS/MS condition, ESI was used as an ionization method, and cation, and SRM (precursor ion and daughter ion) was used for monitoring.

[2] = target: dipeptidyl peptidase IV (DPP IV) (Homo sapiens, UniProt P27487); assay: Dipeptidyl peptidase IV activity inhibition test (human plasma, Gly-Pro-4-methylcoumaryl-7-amide); assay type: biochemical; conditions: room temperature, 2 hours, pH 7.8
Method: Experiment 1 [Dipeptidyl Peptidase IV Activity Inhibition Test]
Plasma including dipeptidyl peptidase IV was prepared by centrifugation of blood collected from healthy human volunteers. […] The fluorescence intensity at which the reaction time of the vehicle addition was 0 minute was regarded as a blank value, and the specific fluorescence intensity was calculated by subtracting the blank value from the determined value. The inhibition rate (%) of the dipeptidyl peptidase IV activity was calculated from the resulting specific fluorescence intensity according to the following formula. The dimethyl sulfoxide solution containing the test compound at high concentration of 1000-fold was prepared and diluted with the above-mentioned buffer solution for use.
Inhibition rate (%)=A/B×100
(A=fluorescence intensity of vehicle addition fluorescence intensity of the test compound addition)
(B=fluorescence intensity of the vehicle addition)

Zucker fatty rats = assay: Oral glucose tolerance test (OGTT) in Zucker fatty rats; assay type: in vivo
Method: Experiment 3 [Effect of Dipeptidyl Peptidase IV Inhibitors on Oral Glucose Tolerance Test (OGTT) in Zucker Fatty Rats]
An OGTT in Zucker fatty rats was carried out referring to the method described in Diabetologia, 42, 1324-1331 (1999). In the test, male Zucker fatty rats, 10 weeks old (Charles River Japan, Inc.) were used after fasting for 16 hours. […] Before the begining of the test, blood was collected from the intraorbital vein using a heparin-treated tube for blood collection (manufactured by Drummond Scientific Co.). The test compounds were each dissolved in water for injection under Japanese Pharmacopoeia (manufactured by Hikari Pharmaceutical Co.) and orally administered in an amount of 2 ml/kg of the body weight. The same amount of water for injection under Japanese Pharmacopoeia only was administered to control group. […]
Plasma glucose levels of the frozen samples (mg/dl) were determined using Glucose CII test Wako (manufactured by Wako Fine Chemical Industry Co.), and the area under the curve (min·mg/dl) was calculated from the plasma glucose levels which were determined from the blood collected for 60 minutes after the glucose administration. […]

Chain of dipeptidyl peptidase IV (DPP IV) (P27487 39-766 limits assumed): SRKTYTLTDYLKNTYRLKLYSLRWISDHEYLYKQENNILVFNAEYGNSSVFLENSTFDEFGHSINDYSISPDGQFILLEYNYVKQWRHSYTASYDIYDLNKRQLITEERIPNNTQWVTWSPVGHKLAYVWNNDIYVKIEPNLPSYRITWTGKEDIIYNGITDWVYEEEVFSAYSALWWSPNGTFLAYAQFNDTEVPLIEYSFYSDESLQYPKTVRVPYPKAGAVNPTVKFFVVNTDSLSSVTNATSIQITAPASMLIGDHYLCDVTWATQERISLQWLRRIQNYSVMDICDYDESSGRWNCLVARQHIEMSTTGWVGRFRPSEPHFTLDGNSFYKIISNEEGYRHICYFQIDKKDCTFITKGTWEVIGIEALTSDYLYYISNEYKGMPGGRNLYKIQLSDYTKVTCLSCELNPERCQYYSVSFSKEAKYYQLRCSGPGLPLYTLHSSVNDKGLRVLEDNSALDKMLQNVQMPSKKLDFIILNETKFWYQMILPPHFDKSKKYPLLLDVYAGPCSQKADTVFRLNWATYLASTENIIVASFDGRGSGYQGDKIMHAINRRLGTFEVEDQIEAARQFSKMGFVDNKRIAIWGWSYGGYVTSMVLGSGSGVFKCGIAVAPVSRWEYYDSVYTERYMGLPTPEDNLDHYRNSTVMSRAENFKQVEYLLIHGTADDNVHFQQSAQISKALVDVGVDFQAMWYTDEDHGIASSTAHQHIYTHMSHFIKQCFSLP

| Structure (SMILES) | concentration at 5 min [1] [ng/mL] | concentration at 10 min [1] [ng/mL] | concentration at 15 min [1] [ng/mL] | concentration at 30 min [1] [ng/mL] | concentration at 1 h [1] [ng/mL] | concentration at 2 h [1] [ng/mL] | IC50 [2] [nM] | concentration in plasma compared with Compound A (in words) [1] | elevation of the plasma glucose level (in words) (Zucker fatty rats; OGTT, p<0.05) | area under the curve of plasma glucose levels, mean ± S.E. (Zucker fatty rats; oral, glucose 1 g/kg 30 minutes after compound, 60 minutes after glucose administration) [mg·min/dL] |
| --- | --- | --- | --- | --- | --- | --- | --- | --- | --- | --- |
| CC[C@H](C)[C@H](N)C(=O)N1CCC[C@H]1C#N [Compound A, 1-[(2S,3S)-2-amino-3-methylpentanoyl]-2-(S)-cyanopyrrolidine trifluoroacetate, reference compound] | 122 | 146 | 113 | 28 | 6 | 2 |  |  |  |  |
| CC[C@H](C)[C@H](N)C(=O)N1C[C@@H](F)C[C@H]1C#N.Cl [Example 1, (2S,4S)-1-[(2S,3S)-2-amino-3-methylpentanoyl]-2-cyano-4-fluoropyrrolidine Hydrochloride] | 157 | 372 | 348 | 195 | 24 | 5 | 0.6 | higher concentration in plasma than Compound A | inhibited significantly the elevation of the plasma glucose level | 13248 ± 619 |
| CC(C)[C@H](N)C(=O)N1C[C@@H](F)C[C@H]1C#N [Example 15, (2S,4S)-1-[(2S)-2-amino-3-methylbutanoyl]-2-cyano-4-fluoropyrrolidine Hydrochloride] |  |  |  |  |  |  | 0.7 |  |  |  |
| CC(C)(C)[C@H](N)C(=O)N1C[C@@H](F)C[C@H]1C#N [Example 17, (2S,4S)-1-[(2S)-2-amino-3,3-dimethylbutanoyl]-2-cyano-4-fluoropyrrolidine Hydrochloride] |  |  |  |  |  |  | 0.6 |  |  |  |
